The values that follow come from EP1120414A1, “DISUBSTITUTED MALEIMIDE COMPOUNDS AND MEDICINAL UTILIZATION THEREOF” (Japan Tobacco Inc., priority 1998, dated 2000).

The structures appear in SMILES notation. Where a name gives a salt, the structure may show the parent alone.

One assay deals with T1, PKC β II (Homo sapiens, UniProt P05771).
T1 construct: purchased CALBIOCHEM
In words: PKC enzyme assay (BIOTRAK Protein kinase C enzyme assay system, 32P-ATP phosphorylation of peptide […]). To be noted: for Ratio α/β: IC50 PKC α / IC50 PKC β II; for IC50: Protein Kinase C, Human Recombinant, test substance 1 nM-10 µM, 37°C, 15 minutes, read-out: Inhibition of PKC activity IC50 PKC β II. Type of assay: biochemical. An excerpt: The method for determining the PKC inhibitory activity of the compound of the present invention is explained in the following. Inasmuch as PKCβII is present in greater number in intravascular cells than PKCβI, PKCβII was mainly used here to test the enzyme activity.
(§1) As the reagent for enzyme assay, BIOTRAK Protein kinase C enzyme assay system (hereinafter the system, Amersham), and as the PKC enzyme standard product, Protein Kinase C, Human Recombinant (CALBIOCHEM) were purchased and used in the assay. A substrate mixture was prepared by mixing calcium buffer (12 mM calcium acetate, 50 mM Tris/HCl pH 7.5, 0.05% (w/v) sodium azide), Lipid (0.3 mg/ml La-phosphatidyl-L-serine, […] phorbol 12-myristate 13-acetate, 50 mM Tris/HCl pH 7.5, 0.05% (w/v) sodium azide), peptide buffer (900 µM peptide […]), 50 mM Tris/HCl pH 7.5, 0.05% (w/v) sodium azide), DTT buffer (30 mM dithiothreitol, 50 mM Tris/HCl pH 7.5, 0.05% (w/v) sodium azide), and magnesium ATP buffer (1.2 mM ATP, […] pH 7.4, 72 mM magnesium chloride) all attached to the system in a ratio of 1:1:1:1:0.8 and adding [ y -32P]ATP (Amersham, cat. […] The PKC enzyme standard product was diluted with an assay buffer (10 mM Hepes pH 7.4, 0.01% Triton X-100) to a concentration of 400 ng/ml and used as the enzyme solution. The substrate mixture and a test substance (diluted to the final concentration of 1 nM-10 µM with dimethyl sulfoxide (DMSO)) were mixed at a ratio of 20:1. The enzyme solution was added in the amount equivalent to the substrate mixture and mixed, which was followed by incubation at 37°C for 15 minutes. The reaction terminator (300 mM orthophosphoric acid containing carmosine red) attached to the system was added in the amount equivalent to the substrate mixture to end the reaction, and the reaction mixture was spotted on a phosphocellulose paper (Whatman, P-81), washed twice with 75 mM orthophosphoric acid and assayed for radioactivity by BAS2000 (Fuji film).
(§2) The ratio of the radioactivity of the addition of the test substance to the addition of DMSO was determined, and IC50 was calculated from inhibition at each concentration.

For the next assay, the target named is T2, PKC α (Homo sapiens, UniProt P17252).
T2 construct: purchased CALBIOCHEM
Described as above. Format: biochemical. To be noted: Protein Kinase C, Human Recombinant; test substance 1 nM-10 µM; 37°C, 15 minutes; read-out: Inhibition of PKC activity IC50 PKC α. The method, then:
as §1, §2

T1 sequence (P05771 other isoform, or with tags, fused parts or gaps): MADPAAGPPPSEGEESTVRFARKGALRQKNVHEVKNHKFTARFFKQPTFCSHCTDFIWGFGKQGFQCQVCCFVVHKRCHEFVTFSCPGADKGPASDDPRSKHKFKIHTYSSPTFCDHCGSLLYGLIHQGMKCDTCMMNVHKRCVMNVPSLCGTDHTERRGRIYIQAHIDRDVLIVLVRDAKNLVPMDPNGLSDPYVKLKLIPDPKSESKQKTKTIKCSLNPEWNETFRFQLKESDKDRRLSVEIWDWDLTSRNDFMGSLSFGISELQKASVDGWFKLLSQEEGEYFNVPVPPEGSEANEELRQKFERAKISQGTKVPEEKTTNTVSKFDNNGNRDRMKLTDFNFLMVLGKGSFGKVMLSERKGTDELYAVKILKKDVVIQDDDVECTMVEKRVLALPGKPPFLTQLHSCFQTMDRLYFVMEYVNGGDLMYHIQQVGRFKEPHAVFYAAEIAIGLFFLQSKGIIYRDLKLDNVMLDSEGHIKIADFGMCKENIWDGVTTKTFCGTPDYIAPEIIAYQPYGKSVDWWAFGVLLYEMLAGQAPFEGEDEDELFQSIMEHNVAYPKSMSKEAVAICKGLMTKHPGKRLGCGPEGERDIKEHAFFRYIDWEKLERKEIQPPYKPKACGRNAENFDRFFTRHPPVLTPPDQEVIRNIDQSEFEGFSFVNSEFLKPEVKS

For the compound `CCN(CCCn1cc(C2=C(Nc3ccccc3)C(=O)NC2=O)c2ccccc21)Cc1ccncc1` [Example 2-18, 3-[1-{3-[N-ethyl-N-(4-pyridylmethyl)amino]propyl}-1H-indol-3-yl]-4-(phenylamino)-1H-pyrrole-2,5-dione], at PKC β II, the “Ratio α/β” value was found to be 41 and the IC50 came out at 183 nM. The IC50 on PKC α turned out to be 7530 nM.
For `O=C1NC(=O)C(c2cn(CCCN3CCOCC3)c3ccccc23)=C1Nc1ccccc1` [Example 2-19, 3-[1-(3-morpholinopropyl)-1H-indol-3-yl]-4-(phenylamino)-1H-pyrrole-2,5-dione], the “Ratio α/β” value on PKC β II was found to be 72. For the same compound, the IC50 at PKC β II amounted to 17 nM; on PKC α it was 1230 nM.
For `O=C1NC(=O)C(c2cn(CCCN3CCCCC3)c3ccccc23)=C1Nc1ccccc1` [Example 2-20, 3-[1-(3-piperidinopropyl)-1H-indol-3-yl]-4-(phenylamino)-1H-pyrrole-2,5-dione], the IC50 is 17 nM on PKC β II and 726 nM on PKC α.
Consider `O=C1NC(=O)C(c2cn(CCCN3CCSCC3)c3ccccc23)=C1Nc1ccccc1` [Example 2-21, 3-(phenylamino)-4-[1-(3-thiomorpholinopropyl)-1H-indol-3-yl]-1H-pyrrole-2,5-dione], for which, at PKC β II, the “Ratio α/β” value came out at 46 and the IC50 was determined as 17 nM. In addition, the IC50 on PKC α is 773 nM.
`O=C1NC(=O)C(c2cn(CCCN3CCCC3)c3ccccc23)=C1Nc1ccccc1` [Example 2-22, 3-(phenylamino)-4-(1-(3-pyrrolidin-1-ylpropyl)-1H-indol-3-yl]-1H-pyrrole-2,5-dione]: at PKC β II, the “Ratio α/β” value is on record as 37 and the concentration for half-maximal inhibition (IC50) came out at 18 nM. Besides, at PKC α, the concentration for half-maximal inhibition (IC50) came out at 662 nM.
Taken in the same sequence, the figures for `NC(=O)C1CCCN1CCCn1cc(C2=C(Nc3ccccc3)C(=O)NC2=O)c2ccccc21` (centres unmarked) [Example 2-24, 3-[1-{3-(2-carbamoylpyrrolidin-1-yl)propyl}-1H-indol-3-yl]-4-(phenylamino)-1H-pyrrole-2,5-dione] were 42, 66 nM and 2750 nM.
Regarding `O=C1NC(=O)C(c2cn(CCCN3CCC(O)CC3)c3ccccc23)=C1Nc1ccccc1` [Example 2-25, 3-[1-{3-(4-hydroxypiperidino)propyl}-1H-indol-3-yl]-4-(phenylamino)-1H-pyrrole-2,5-dione], on PKC β II, the “Ratio α/β” value was found to be 46 and the IC50 was 9 nM. The IC50 at PKC α was 413 nM.
In the case of `CN1CCN(CCCn2cc(C3=C(Nc4ccccc4)C(=O)NC3=O)c3ccccc32)CC1` [Example 2-26, 3-[1-{3-(4-methylpiperazin-1-yl)propyl}-1H-indol-3-yl]-4-(phenylamino)-1H-pyrrole-2,5-dione], the IC50 is 23 nM at PKC β II and 968 nM at PKC α.
As for `O=C1NC(=O)C(c2cn(CCCCN3CCC(O)CC3)c3ccccc23)=C1Nc1cccc(Cl)c1` [Example 2-27, 3-[(3-chlorophenyl)amino]-4-[1-{4-(4-hydroxypiperidino)butyl}-1H-indol-3-yl]-1H-pyrrole-2,5-dione], on PKC β II, the “Ratio α/β” value amounted to 37 and the IC50 is 26 nM. Further, on PKC α, the half-inhibitory concentration (IC50) was 973 nM.
In the case of `O=C1NC(=O)C(c2cn(CCCCCN3CCC(O)CC3)c3ccccc23)=C1Nc1ccccc1` [Example 2-28, 3-[1-{5-(4-hydroxypiperidino)pentyl}-1H-indol-3-yl]-4-(phenylamino)-1H-pyrrole-2,5-dione], at PKC β II, the “Ratio α/β” value was determined as 43 and the half-maximal inhibitory concentration (IC50) was determined as 25 nM. For the same compound, the IC50 on PKC α was 1080 nM.
Regarding `CN1CCN(CCCCn2cc(C3=C(Nc4ccccc4)C(=O)NC3=O)c3ccccc32)CC1` [Example 2-29, 3-[1-{4-(4-methylpiperazin-1-yl)butyl}-1H-indol-3-yl]-4-(phenylamino)-1H-pyrrole-2,5-dione], the “Ratio α/β” value at PKC β II was determined as 75. Also, the half-inhibitory concentration (IC50) at PKC β II was 25 nM; on PKC α, 1870 nM.
For the compound `O=C1NC(=O)C(c2cn(CCCN3CCC(N4CCCCC4)CC3)c3ccccc23)=C1Nc1ccccc1` [Example 2-31, 3-(phenylamino)-4-[1-{3-(4-piperidinopiperidino)propyl}-1H-indol-3-yl]-1H-pyrrole-2,5-dione], on PKC β II, the “Ratio α/β” value came to 59 and the IC50 amounted to 12 nM. The half-inhibitory concentration (IC50) on PKC α worked out at 703 nM.
The corresponding values for `O=C1NC(=O)C(c2cn(CCCN3CCN(CCO)CC3)c3ccccc23)=C1Nc1ccccc1` [Example 2-32, 3-[1-{3-[4-(2-hydroxyethyl)piperazin-1-yl]propyl}-1H-indol-3-yl]-4-(phenylamino)-1H-pyrrole-2,5-dione] are 57, 19 nM and 1080 nM.
For `NC(=O)C1CCN(CCCn2cc(C3=C(Nc4ccccc4)C(=O)NC3=O)c3ccccc32)CC1` [Example 2-33, 3-[1-{3-(4-carbamoylpiperidino)propyl}-1H-indol-3-yl]-4-(phenylamino)-1H-pyrrole-2,5-dione], on PKC β II, the “Ratio α/β” value amounted to 68 and the concentration for half-maximal inhibition (IC50) turned out to be 10 nM. Besides, the IC50 on PKC α came to 676 nM.
Taken in the same sequence, the figures for `CN(C)C1CCN(CCCn2cc(C3=C(Nc4ccccc4)C(=O)NC3=O)c3ccccc32)CC1` [Example 2-34, 3-[1-{3-(4-dimethylaminopiperidino)propyl}-1H-indol-3-yl]-4-(phenylamino)-1H-pyrrole-2,5-dione] were 57, 15 nM and 851 nM.
As for `O=C1NC(=O)C(c2cn(CCCS(=O)(=O)c3ccccc3)c3ccccc23)=C1Nc1ccccc1` [Example 2-35, 3-[1-{3-(phenylsulfonyl)propyl}-1H-indol-3-yl]-4-(phenylamino)-1H-pyrrole-2,5-dione], at PKC β II, the “Ratio α/β” value came to 41 and the IC50 stood at 95 nM. The 50% inhibitory concentration (IC50) at PKC α was 3890 nM.
As for `O=C1NC(=O)C(c2cn(CCCn3ccnc3)c3ccccc23)=C1Nc1ccccc1` [Example 2-36, 3-[1-(3-imidazol-1-ylpropyl)-1H-indol-3-yl]-4-(phenylamino)-1H-pyrrole-2,5-dione], the IC50 is 5 nM at PKC β II and 331 nM at PKC α.
Consider `O=C1NC(=O)C(c2cn(CCCn3cccn3)c3ccccc23)=C1Nc1ccccc1` [Example 2-37, 3-(phenylamino)-4-[1-(3-pyrazol-1-ylpropyl)-1H-indol-3-yl]-1H-pyrrole-2,5-dione], for which, on PKC β II, the “Ratio α/β” value was 17 and the 50% inhibitory concentration (IC50) came out at 60 nM. Moreover, the half-maximal inhibitory concentration (IC50) at PKC α was > 1000 nM.
On to `O=C1NC(=O)C(c2cn(CCCn3cncn3)c3ccccc23)=C1Nc1ccccc1` [Example 2-38, 3-(phenylamino)-4-[1-{3-(1,2,4-triazol-1-yl)propyl}-1H-indol-3-yl]-1H-pyrrole-2,5-dione], for which the “Ratio α/β” value at PKC β II is reported as 25. Also, the half-maximal inhibitory concentration (IC50) at PKC β II is 40 nM; at PKC α, > 1000 nM.
For `O=C1NC(=O)C(c2cn(CCCn3ccnc3)c3ccccc23)=C1Nc1cccc(Cl)c1` [Example 2-39, 3-[(3-chlorophenyl)amino]-4-[1-(3-imidazol-1-ylpropyl)-1H-indol-3-yl]-1H-pyrrole-2,5-dione], at PKC β II, the “Ratio α/β” value is reported as 17 and the IC50 amounted to 21 nM. In addition, the half-inhibitory concentration (IC50) at PKC α is 354 nM.
Consider `O=C1NC(=O)C(c2cn(CCCCn3ccnc3)c3ccccc23)=C1Nc1cccc(Cl)c1` [Example 2-40, 3-[(3-chlorophenyl)amino]-4-[1-(4-imidazol-1-ylbutyl)-1H-indol-3-yl]-1H-pyrrole-2,5-dione], for which, on PKC β II, the “Ratio α/β” value is 41 and the IC50 was 19 nM. The concentration for half-maximal inhibition (IC50) at PKC α came to 770 nM.
`O=C1NC(=O)C(c2cn(CCCCCn3ccnc3)c3ccccc23)=C1Nc1ccccc1` [Example 2-41, 3-[1-(5-imidazol-1-ylpentyl)-1H-indol-3-yl]-4-(phenylamino)-1H-pyrrole-2,5-dione]: at PKC β II, the “Ratio α/β” value is recorded as 44 and the IC50 was 62 nM. Also, the concentration for half-maximal inhibition (IC50) at PKC α stood at 2740 nM.
Turning to `Cc1nccn1CCCn1cc(C2=C(Nc3cccc(Cl)c3)C(=O)NC2=O)c2ccccc21` [Example 2-42, 3-[(3-chlorophenyl)amino]-4-[1-{3-(2-methylimidazol-1-yl)propyl}-1H-indol-3-yl]-1H-pyrrole-2,5-dione], on PKC β II, the “Ratio α/β” value is given as 45 and the half-maximal inhibitory concentration (IC50) is 10 nM. For the same compound, at PKC α, the half-inhibitory concentration (IC50) is 452 nM.
As for `N=C(N)SCCCn1cc(C2=C(Nc3ccccc3)C(=O)NC2=O)c2ccccc21` [Example 2-43, 3-[1-(3-amidinothiopropyl)-1H-indol-3-yl]-4-(phenylamino)-1H-pyrrole-2,5-dione hydrobromide], the half-maximal inhibitory concentration (IC50) is 2 nM on PKC β II and 27 nM at PKC α.
